In article PMC12830821 (Communications Biology, 2025):

Assays:
Assay type in all cases: cell-based
human TRPM8 (hTRPM8) [1] = target: T1, human TRPM8 (hTRPM8) (Homo sapiens, UniProt Q7Z2W7); experiment: calcium imaging
rat TRPM8 (rTRPM8) [2] = target: T2, rat TRPM8 (rTRPM8) (Rattus norvegicus, UniProt Q8R455); experiment: calcium imaging
chicken TRPM8 (cTRPM8) = chicken TRPM8 (cTRPM8) (Gallus gallus, UniProt A0AA95FIJ1)
human TRPM8 (hTRPM8) [3] = target: T1, human TRPM8 (hTRPM8)
rat TRPM8 (rTRPM8) [4] = target: T2, rat TRPM8 (rTRPM8)

T2 sequence (Q8R455 whole entry): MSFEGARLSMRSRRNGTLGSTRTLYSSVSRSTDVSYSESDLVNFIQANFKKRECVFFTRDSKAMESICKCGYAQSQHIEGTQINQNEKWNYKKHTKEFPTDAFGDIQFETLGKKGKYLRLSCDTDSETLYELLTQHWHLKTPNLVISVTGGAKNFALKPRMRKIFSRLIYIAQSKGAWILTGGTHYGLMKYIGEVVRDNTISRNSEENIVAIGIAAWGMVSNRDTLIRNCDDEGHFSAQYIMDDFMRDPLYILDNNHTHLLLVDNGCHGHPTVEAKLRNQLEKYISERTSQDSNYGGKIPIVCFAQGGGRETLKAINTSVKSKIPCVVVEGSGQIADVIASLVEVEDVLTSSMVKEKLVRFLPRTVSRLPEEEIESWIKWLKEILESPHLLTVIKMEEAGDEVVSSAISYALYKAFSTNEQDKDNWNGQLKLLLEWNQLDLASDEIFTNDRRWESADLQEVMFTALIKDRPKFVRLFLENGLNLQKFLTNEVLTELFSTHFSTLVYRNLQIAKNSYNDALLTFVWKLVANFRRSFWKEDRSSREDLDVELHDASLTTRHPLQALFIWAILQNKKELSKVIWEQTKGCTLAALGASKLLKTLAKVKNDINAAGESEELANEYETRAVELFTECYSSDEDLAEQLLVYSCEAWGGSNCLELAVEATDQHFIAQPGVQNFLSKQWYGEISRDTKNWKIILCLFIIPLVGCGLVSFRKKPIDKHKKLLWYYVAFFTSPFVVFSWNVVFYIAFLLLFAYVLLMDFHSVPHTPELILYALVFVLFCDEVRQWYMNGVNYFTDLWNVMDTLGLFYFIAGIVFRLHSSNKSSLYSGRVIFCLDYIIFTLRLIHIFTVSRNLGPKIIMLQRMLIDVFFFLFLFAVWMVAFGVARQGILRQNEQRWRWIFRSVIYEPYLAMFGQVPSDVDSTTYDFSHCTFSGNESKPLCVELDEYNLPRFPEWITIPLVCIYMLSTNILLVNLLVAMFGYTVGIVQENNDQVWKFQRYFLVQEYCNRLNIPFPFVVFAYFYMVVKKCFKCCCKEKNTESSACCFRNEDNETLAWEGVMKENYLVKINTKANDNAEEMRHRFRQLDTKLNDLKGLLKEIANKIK
T1 sequence (Q7Z2W7 whole entry): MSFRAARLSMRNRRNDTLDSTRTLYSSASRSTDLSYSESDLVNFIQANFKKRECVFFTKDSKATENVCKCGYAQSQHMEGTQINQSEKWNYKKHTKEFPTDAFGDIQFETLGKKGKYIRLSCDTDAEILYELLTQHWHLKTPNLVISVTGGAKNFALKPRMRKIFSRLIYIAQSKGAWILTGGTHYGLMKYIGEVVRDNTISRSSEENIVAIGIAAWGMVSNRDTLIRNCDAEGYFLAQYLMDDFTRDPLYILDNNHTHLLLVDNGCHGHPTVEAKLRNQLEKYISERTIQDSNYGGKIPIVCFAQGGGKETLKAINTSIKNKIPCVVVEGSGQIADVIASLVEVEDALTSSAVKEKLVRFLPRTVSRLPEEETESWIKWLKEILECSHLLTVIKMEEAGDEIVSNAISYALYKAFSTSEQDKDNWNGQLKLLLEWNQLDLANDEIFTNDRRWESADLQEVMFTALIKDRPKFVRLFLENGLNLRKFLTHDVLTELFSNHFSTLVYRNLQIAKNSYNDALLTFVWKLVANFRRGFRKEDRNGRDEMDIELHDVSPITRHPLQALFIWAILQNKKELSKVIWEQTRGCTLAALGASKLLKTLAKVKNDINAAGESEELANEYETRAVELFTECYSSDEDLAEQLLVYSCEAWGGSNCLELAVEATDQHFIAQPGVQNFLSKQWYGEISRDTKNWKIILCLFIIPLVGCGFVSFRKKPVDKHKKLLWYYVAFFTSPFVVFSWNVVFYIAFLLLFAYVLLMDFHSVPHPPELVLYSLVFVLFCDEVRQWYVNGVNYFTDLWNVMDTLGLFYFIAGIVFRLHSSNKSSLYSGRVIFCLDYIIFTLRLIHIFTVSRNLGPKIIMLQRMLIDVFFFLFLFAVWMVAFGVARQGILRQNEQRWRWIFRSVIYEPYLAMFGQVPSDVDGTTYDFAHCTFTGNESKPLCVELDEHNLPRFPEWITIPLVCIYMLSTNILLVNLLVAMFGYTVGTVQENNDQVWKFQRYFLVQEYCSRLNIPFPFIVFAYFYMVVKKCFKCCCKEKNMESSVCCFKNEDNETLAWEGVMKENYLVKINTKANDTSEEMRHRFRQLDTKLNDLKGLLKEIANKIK
Sequence of chicken TRPM8 (cTRPM8) (A0AA95FIJ1 1-1111): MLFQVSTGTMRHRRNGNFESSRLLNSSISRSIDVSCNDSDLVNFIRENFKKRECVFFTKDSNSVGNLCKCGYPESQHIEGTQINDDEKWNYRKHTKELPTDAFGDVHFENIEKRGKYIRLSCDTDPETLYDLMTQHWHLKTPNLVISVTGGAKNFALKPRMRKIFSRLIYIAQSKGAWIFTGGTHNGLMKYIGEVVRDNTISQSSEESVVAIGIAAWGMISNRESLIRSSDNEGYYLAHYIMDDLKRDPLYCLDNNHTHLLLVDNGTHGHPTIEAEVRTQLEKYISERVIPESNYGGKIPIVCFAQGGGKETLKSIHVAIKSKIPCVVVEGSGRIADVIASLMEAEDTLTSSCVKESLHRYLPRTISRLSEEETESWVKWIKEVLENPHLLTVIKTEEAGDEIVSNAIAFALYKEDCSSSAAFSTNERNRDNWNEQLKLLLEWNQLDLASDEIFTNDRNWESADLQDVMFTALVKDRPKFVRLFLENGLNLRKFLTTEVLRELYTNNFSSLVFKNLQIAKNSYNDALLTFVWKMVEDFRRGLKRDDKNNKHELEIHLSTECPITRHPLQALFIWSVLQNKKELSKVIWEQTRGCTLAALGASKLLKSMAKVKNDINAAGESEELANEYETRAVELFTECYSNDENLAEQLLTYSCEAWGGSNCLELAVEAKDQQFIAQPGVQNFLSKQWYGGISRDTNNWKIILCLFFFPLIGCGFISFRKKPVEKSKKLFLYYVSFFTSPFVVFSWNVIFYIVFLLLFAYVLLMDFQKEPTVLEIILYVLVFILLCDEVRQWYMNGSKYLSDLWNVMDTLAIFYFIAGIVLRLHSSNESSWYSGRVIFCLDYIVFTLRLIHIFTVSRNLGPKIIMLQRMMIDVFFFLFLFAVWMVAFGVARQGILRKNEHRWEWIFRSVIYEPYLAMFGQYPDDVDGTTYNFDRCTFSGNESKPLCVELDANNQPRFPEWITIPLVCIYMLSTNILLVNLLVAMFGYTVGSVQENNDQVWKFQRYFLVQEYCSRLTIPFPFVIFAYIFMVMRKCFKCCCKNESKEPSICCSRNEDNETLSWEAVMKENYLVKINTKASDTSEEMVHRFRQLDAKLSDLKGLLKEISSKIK

O=C1NC(c2cccc([N+](=O)[O-])c2)=CCN1c1ccccc1O [icilin, 1-(2-hydroxyphenyl)-4-(V3-nitrophenyl)-l,2,3,6-tetrahydropyrimidine-2-one]
calcium imaging (10 μM) in transfected HEK293T cells (human TRPM8 (hTRPM8) [1]): As expected, icilin activated only the mammalian orthologs
calcium imaging (10 μM) in transfected HEK293T cells (rat TRPM8 (rTRPM8) [2]): As expected, icilin activated only the mammalian orthologs

CCCCCCCP(=O)(C(C)C)C(C)C [C-1, 1-di(propan-2-yl)phosphorylheptane]
EC50 (chicken TRPM8 (cTRPM8)): 0.25 µM
EC50 (human TRPM8 (hTRPM8) [3]): 2.43 µM
EC50 (rat TRPM8 (rTRPM8) [4]): Rat TRPM8 showed intermediate EC50 values
